Measured values published in patent US20030017518A1, “Non-radio-active assay of LPS kinases” (priority 2001, published 2003).

How the values were obtained:
[1] = target: T1, WaaP from E. coli (WaaPEc) (Escherichia coli, UniProt Q9R9D6); details: cited from earlier work
T1 construct: His-tag (N)

[2] = system: E. coli F470 (waaP−)/waaPPa(D163A); experiment: MIC of novobiocin and SDS, in vivo complementation assay; assay type: cell-based
Description: (§1) Site-directed mutagenesis and in vivo complementation assay—waaP was amplified by polymerase chain reaction (PCR) from pCOREc1 (de Kievit and Lam, 1997) with the flanking up- and down-stream primers ^5′[…]^3′ (SEQ ID NO: 3) and ^5′[…]^3′ (SEQ ID NO: 4) containing Baam HI and Hind III respectively. The PCR product was cloned into the complementation vector pUCP26 (West, 1994) as a positive control for complementation assay. Mutations of waaP were introduced by the method of “overlapping extension” as described by Horton (Horton, 1993) using PCR with the flanking primers as well as the primers shown below. K69A mutation was introduced with the primer (only up-strand was described here) ^5′[…]^3′ (SEQ ID NO: 5); K69R with ^5′[…]^3′ (SEQ ID NO: 6); D163A with ^5′[…]^3′ (SEQ ID NO: 7); and D163E with ^5′[…]^3′ (SEQ ID NO: 8). Underlined nucleotides indicated the mutations. The PCR products were then cloned into pUCP26 at Bam HI and Hind III sites respectively, and transformed into E. coli F470 7waaP- (Yethon 1998). Constructs of the mutations of waaP were sequenced to confirm the mutation. In vivo complementation was tested for the minimum inhibition concentration (MIC) of SDS and novobiocin, respectively according to Walsh, et al. 2000. E. coli F470 7waaP- was used as the negative control.
(§2) To validate the accuracy of the alignment comparisons in FIG. 2, site-directed mutagenesis of waaPPa was performed targeting on K^69 and […], respectively. The effect of the site-directed mutation was evaluated by their ability to complement waaP-Ec. It is noteworthy that the complementation assay was performed using waaP-Ec since waaP mutation is lethal to P. aeruginosa. In Table I, the complementation of waaP-Ec by wild type waaPPa increased the MICs of waaP-Ec by 3 and 30 times to novobiocin and SDS, respectively. However, the MICs of all the mutants were at the same level as that of waaP-Ec.

[3] = system: E. coli F470 (waaP−)/waaPPa(K69R); experiment: as above; assay type: cell-based
Description: as §1, §2

E. coli F470 (waaP−) = experiment: as above; assay type: cell-based
Description: as §1, §2

[4] = system: E. coli F470 (waaP−)/waaPPa(D163E); experiment: as above; assay type: cell-based
Description: as §1, §2

[5] = system: E. coli F470 (waaP−)/waaPPa(K69A); experiment: as above; assay type: cell-based
Description: as §1, §2

[6] = system: E. coli F470 (waaP−)/waaPPa; experiment: as above; assay type: cell-based; details: for increase of the MIC of waaP-Ec by complementation with wild type waaPPa: versus E. coli F470 waaP− mutant
Description: as §1, §2

F470 (wild type) = experiment: as above; assay type: cell-based, E. coli
Description: Site-directed mutagenesis and in vivo complementation assay—waaP was amplified by polymerase chain reaction (PCR) from pCOREc1 (de Kievit and Lam, 1997) with the flanking up- and down-stream primers ^5′[…]^3′ (SEQ ID NO: 3) and ^5′[…]^3′ (SEQ ID NO: 4) containing Baam HI and Hind III respectively. The PCR product was cloned into the complementation vector pUCP26 (West, 1994) as a positive control for complementation assay. Mutations of waaP were introduced by the method of “overlapping extension” as described by Horton (Horton, 1993) using PCR with the flanking primers as well as the primers shown below. K69A mutation was introduced with the primer (only up-strand was described here) ^5′[…]^3′ (SEQ ID NO: 5); K69R with ^5′[…]^3′ (SEQ ID NO: 6); D163A with ^5′[…]^3′ (SEQ ID NO: 7); and D163E with ^5′[…]^3′ (SEQ ID NO: 8). Underlined nucleotides indicated the mutations. The PCR products were then cloned into pUCP26 at Bam HI and Hind III sites respectively, and transformed into E. coli F470 7waaP- (Yethon 1998). Constructs of the mutations of waaP were sequenced to confirm the mutation. […]
To validate the accuracy of the alignment comparisons in FIG. 2, site-directed mutagenesis of waaPPa was performed targeting on K^69 and […], respectively. The effect of the site-directed mutation was evaluated by their ability to complement waaP-Ec. […]

WaaPHisC = target: T2, WaaPHisC (Pseudomonas aeruginosa, UniProt Q9HUF7); assay type: biochemical, P. aeruginosa
T2 construct: made in house; host or cells: E. coli BL21(DE3)pLysS, vector pET30a(+)
Method: Antigen coating was accomplished by adding 50 μl LPS or enzyme reaction mixture to each well and then mixing with equal amount of chloroform-ethanol ([…]/EtOH) (1:10, v/v)). The plate was incubated at room temperature in the fume hood (flow rate at 150 ft·min^−1) overnight to allow the evaporation of the solvent. The ELISA was performed according to Bantroch et al. (1994) (Bantroch, 1994) with the following modifications. […] For the colorimetric method (Bantroch, 1994), the ELISA was developed at 37° C. for 2 h and the optical density at 405 nm was determined on a microplate reader (Flow Laboratories, Mississauga, ON). For the chemiluminescence development, 100 μl of the chemiluminescence substrate CDP-Star® Ready-to-Use with Emerald-II™ (CDP*) (Applied Biosystems, Bedford, Mass.) with 1:5 (v/v) diluted in diethanolamine buffer (9.6% (v/v) and 0.01% (w/v) MgCl2, pH 9.8) was added to each well. After incubation at room temperature for 20 min, the response of chemiluminescence was measured on a 1420-VICTOR^2 Multilabel Counter (Wallac, Montreal, QC) using chemiluminescence program.
The reaction mixture was incubated at 37° C. for 30 min (15 min for kinetics experiments) and quenched by the addition of 50 μl chloroform/ethanol (1:10) solution. The plate was then left at room temperature in the fume hood overnight and subjected to ELISA the next morning. PAO1-LPS was used as the standard to quantify phosphorylated LPS.
Therefore, the reactions on the kinetics studies measured the phosphorylation within the initial 15 min.

T1 sequence (Q9R9D6 whole entry): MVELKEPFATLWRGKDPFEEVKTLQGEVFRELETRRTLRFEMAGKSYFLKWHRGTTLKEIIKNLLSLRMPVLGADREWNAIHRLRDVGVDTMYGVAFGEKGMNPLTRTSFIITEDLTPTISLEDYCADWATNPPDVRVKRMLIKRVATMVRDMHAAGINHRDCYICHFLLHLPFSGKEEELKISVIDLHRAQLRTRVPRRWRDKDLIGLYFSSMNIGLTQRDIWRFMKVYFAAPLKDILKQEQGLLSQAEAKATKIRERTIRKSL

Nc1ncnc2c1ncn2[C@@H]1O[C@H](COP(=O)(O)OP(=O)(O)OP(=O)(O)O)[C@@H](O)[C@H]1O [ATP, adenosine triphosphate]
Km [1]: 130 µM

CO[C@@H]1[C@@H](OC(N)=O)[C@@H](O)[C@H](Oc2ccc3c(O)c(NC(=O)c4ccc(O)c(CC=C(C)C)c4)c(=O)oc3c2C)OC1(C)C [Novobiocin, novobiocin]
MIC ([2]; Escherichia coli): 25 µg/mL
MIC ([3]; Escherichia coli): 50 µg/mL
MIC (E. coli F470 (waaP−); Escherichia coli): 50 µg/mL
MIC ([4]; Escherichia coli): 50 µg/mL
MIC ([5]; Escherichia coli): 50 µg/mL
MIC ([6]; Escherichia coli): 150 µg/mL
increase of the MIC of waaP-Ec by complementation with wild type waaPPa [6]: 3 times
MIC (F470 (wild type); Escherichia coli): > 200 µg/mL

CCCCCCCCCCCCOS(=O)(=O)[O-].[Na+] [SDS]
MIC ([2]; strain E. coli F470 (waaP−)/waaPPa(D163A)): 400 µg/mL
MIC ([3]; strain E. coli F470 (waaP−)/waaPPa(K69R)): 400 µg/mL
MIC (E. coli F470 (waaP−); strain E. coli F470 (waaP−)): 400 µg/mL
MIC ([4]; strain E. coli F470 (waaP−)/waaPPa(D163E)): 200 µg/mL
MIC ([5]; strain E. coli F470 (waaP−)/waaPPa(K69A)): 400 µg/mL
MIC ([6]; strain E. coli F470 (waaP−) complemented with wild type waaPPa): 12,500 μg.ml^−1
increase of the MIC of waaP-Ec by complementation with wild type waaPPa [6]: 30 times
MIC (F470 (wild type); strain F470 (wild type)): >50,000 μg.ml^−1

B1: WaaPHisC: recombinant P. aeruginosa WaaP with C-terminal 6×His tag, heptose/tyrosine kinase (protein, UniProt Q9HUF7 1-268, looked up)
Lipopolysaccharide core …: MRLVLEEPFKRLWNGRDPFEAVEALQGKVYRELEGRRTLRTEVDGRGYFVKIHRGIGWGEIAKNLLTAKLPVLGARQEWQAIRRLHEAGVATMTAVAYGERGSDPARQHSFIVTEELAPTVDLEVFSQDWRERPPPPRLKRALVEAVARMVGDMHRAGVNHRDCYICHFLLHTDKPVSADDFRLSVIDLHRAQTRDATPKRWRNKDLAALYFSALDIGLTRRDKLRFLRTYFRRPLREILRDEAGLLAWMERKAEKLYERKQRYGDLL
modifications: C-terminal 6xHis tag
notes: recombinant P. aeruginosa WaaP with C-terminal 6×His tag, heptose/tyrosine kinase
Vmax (WaaPHisC; phosphorylation of HF-LPS): 408.24 pmol/min
kcat (WaaPHisC; phosphorylation of HF-LPS): 0.4538 s⁻¹
enzyme activity remained after storage (WaaPHisC; storage at −20° C. for 7 days): about 70%
